Series [1] deals with acetylation state of α-Tubulin and histones (H3K9 and H4K12). The series is described as follows: Acetylation level assay (Western blot) in human iPSC-derived neural progenitor cells. Type of series: cell-based. To be noted: ACY1215 5 μM, other compounds 10 μM; 6 h at 37° C. (In general: In western blotting, separated proteins are transferred to a membrane and probed.)
Series [2] deals with T1, HDAC6 (Rattus norvegicus (Rat), UniProt A0A8I6GM68). In words: Autoradiography competition with radiolabeled Example 2 on rat brain slices. It is filed as binding, Sprague-Dawley rat. As to the method: Sagittal slices of Sprague-Dawley rat brains were sectioned (10 μm) with a cryostat (Thermo Scientific HM550) and mounted onto ColorFrost Plus microscope slides (Fisher Scientific 12-550-18) and stored at −20° C. […] After 15 min, 50 μCi of the radiolabeled compound of Example 2 was added to each bath. After 15 minutes, all slides were washed by dipping 10× into buffer and subsequently submerged in 50 mL baths of buffer at 4° C. for 5 minutes. The slides were dried at 35° C. in a vacuum chamber. A phosphorus screen (Perkin Elmer 7001723) was exposed with the slides for 45 minutes and subsequently imaged with a Cyclone Plus Storage Phosphor (Perkin Elmer) detector. ImageJ was used to apply a Gaussian blur (3.0 radius) smoothing and a lookup table (Royal) with equivalent thresholds for brightness was applied. Raw intensity values from gray and white matter were quantified with the ImageJ measurement tool.
T1 sequence (A0A8I6GM68 whole entry): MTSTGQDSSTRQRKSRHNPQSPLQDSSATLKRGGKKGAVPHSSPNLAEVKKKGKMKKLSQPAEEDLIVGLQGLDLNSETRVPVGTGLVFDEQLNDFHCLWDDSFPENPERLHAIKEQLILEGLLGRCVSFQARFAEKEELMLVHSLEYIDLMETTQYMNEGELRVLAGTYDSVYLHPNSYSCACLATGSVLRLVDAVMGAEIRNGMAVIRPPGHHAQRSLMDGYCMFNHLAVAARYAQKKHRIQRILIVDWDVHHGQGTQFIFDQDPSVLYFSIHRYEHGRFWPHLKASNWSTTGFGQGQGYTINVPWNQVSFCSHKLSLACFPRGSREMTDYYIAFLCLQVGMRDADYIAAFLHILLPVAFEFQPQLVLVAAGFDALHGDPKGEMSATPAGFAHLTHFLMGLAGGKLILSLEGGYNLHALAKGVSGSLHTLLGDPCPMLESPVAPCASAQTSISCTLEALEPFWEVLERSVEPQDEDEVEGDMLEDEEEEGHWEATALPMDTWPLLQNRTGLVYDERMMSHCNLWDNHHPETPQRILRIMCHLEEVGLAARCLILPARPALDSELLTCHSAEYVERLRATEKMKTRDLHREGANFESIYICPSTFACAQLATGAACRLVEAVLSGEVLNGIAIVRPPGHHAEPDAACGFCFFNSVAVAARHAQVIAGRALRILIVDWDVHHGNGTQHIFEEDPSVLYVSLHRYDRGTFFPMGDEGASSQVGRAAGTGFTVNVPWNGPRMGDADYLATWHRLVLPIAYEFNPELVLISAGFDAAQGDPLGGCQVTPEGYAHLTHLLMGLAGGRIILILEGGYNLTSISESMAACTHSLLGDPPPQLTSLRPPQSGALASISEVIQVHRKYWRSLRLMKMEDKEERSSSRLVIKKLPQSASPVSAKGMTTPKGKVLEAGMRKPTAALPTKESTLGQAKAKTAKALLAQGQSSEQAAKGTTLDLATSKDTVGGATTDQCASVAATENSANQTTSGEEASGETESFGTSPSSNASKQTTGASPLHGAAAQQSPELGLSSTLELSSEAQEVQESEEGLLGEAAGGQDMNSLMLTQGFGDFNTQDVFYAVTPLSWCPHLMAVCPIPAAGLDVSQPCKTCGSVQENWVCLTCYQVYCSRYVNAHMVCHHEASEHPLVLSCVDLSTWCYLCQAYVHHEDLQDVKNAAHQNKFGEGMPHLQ

The target in series [3] is HDAC6 (Homo sapiens (Human), UniProt Q9UBN7). The series is described as follows: HDAC IC50 assay by Nanosyn (Caliper microfluidics mobility shift detection). Type of series: biochemical.
HDAC6 (Homo sapiens (Human), UniProt Q9UBN7), sequence (Q9UBN7 whole entry): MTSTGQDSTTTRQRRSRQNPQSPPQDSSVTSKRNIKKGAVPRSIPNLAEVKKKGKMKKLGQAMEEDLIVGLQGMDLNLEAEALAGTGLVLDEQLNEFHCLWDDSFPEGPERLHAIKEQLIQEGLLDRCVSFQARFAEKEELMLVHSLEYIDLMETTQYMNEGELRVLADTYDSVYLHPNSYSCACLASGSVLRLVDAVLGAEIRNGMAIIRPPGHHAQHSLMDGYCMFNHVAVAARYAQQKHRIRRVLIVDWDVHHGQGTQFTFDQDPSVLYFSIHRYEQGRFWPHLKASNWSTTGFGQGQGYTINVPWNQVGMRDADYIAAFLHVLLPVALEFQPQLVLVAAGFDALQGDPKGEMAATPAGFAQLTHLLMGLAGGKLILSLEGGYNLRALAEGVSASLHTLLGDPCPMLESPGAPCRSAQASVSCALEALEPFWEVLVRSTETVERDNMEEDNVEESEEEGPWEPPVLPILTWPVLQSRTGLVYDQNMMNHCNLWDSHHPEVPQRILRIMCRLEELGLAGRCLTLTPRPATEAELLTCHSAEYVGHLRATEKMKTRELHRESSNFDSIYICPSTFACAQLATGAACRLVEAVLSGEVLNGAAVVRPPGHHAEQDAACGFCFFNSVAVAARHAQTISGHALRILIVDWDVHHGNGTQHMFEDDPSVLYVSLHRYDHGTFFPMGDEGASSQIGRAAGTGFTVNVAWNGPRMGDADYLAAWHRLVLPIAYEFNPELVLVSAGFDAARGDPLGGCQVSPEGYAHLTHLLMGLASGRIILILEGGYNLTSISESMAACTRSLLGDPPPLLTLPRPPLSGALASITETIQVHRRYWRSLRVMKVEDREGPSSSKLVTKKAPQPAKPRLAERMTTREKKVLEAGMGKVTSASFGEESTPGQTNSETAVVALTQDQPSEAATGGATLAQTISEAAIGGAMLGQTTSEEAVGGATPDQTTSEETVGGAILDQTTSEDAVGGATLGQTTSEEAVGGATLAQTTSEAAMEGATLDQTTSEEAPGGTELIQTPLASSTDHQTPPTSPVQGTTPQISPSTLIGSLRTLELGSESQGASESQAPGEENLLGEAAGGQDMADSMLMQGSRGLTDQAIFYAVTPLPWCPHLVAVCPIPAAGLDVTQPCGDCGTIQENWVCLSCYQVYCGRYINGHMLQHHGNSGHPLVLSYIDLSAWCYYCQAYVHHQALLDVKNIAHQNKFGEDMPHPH
In series [4] the target is T1, HDAC6. In words: PET/CT imaging in rats with radiolabeled Example 2. It is filed as in vivo, Sprague-Dawley rats. As to the method: 8 male Sprague-Dawley rats (Charles River Laboratories) were used for PET imaging. […] For intravenous administration, a catheter with an extension line was placed in a lateral tail vein. Each animal received a bolus injection of either vehicle (1:1:8 DMSO/Tween80/saline) or blocking agent in solution (1 mg/kg, 1 mg/mL in 1:1:8 DMSO/Tween80/saline) immediately prior to injection of the radiotracer.
After injection of a radiotracer bolus (˜700 ρCi Example 2) a 90 min dynamic PET scan was acquired in pairs for all animals. PET scans were performed on a GammaMedica Triumph PET/CT/SPECT scanner, corrected for attenuation with a μ-map derived from the corresponding CT image, which was acquired immediately following the PET scan. The dynamic PET data was binned into 38 timeframes (8×15 s, 8×1 min, 10×2 min, 12×5) and reconstructed individually via an iterative MLEM (maximum likelihood expectation maximization) algorithm in 16 iterations.
PET images were coregistered to the CT image acquired from the same animal using AMIDE Data sets were cropped and all further image analysis was conducted using PMOD 3.3 (PMOD Technologies, Zurich, Switzerland). For maximum consistency, the data were coregistered to the Schiffer Px Rat rat brain template and data was derived from a whole brain VOI (volumes of interest) for time activity curves.

The nature of series [5]: Microsome stability. The conditions noted are these: hu.
Series [6] can be described thus: Hepatocyte stability. The conditions noted are these: hu.

For the molecule `CN1CCc2c(c3ccccc3n2Cc2ccc(C(=O)NO)cc2)C1` [Tubastatin A], in series [1], the “Histone acetylation on H3K9” value was “remained unaltered”, the “Histone acetylation on H4K12” value is reported as “remained unaltered” and the “amount of cellular acetyl-α-Tubulin” value is recorded as “increased”. For the same molecule, in series [2] (competitor at final concentration of 100 μM), the “binding of radiolabeled Example 2 to rat brain slices in presence of competitor” value is “reduce the amount of bound radioactivity to the same background as 10 μM Example 1”.

Broadly, the IC50 is the point on the concentration scale where inhibition reaches its midpoint. Turning to `CC(CC12CC3CC(CC(C3)C1)C2)N(C)Cc1ccc(C(=O)NO)cc1` (centres unmarked) [Example 20], the 50% inhibitory concentration (IC50) in series [3] was found to be 0.29 µM.

Consider `CC(=O)Nc1ccc(C(=O)Nc2ccccc2N)cc1` [CI-994, tacedinaline], for which, in series [1], the “Histone acetylation on H3K9” value is given as “significantly increased”, the “Histone acetylation on H4K12” value is on record as “significantly increased” and the “amount of cellular acetyl-α-Tubulin” value is “did not increase”.

`O=C(CCCCCCNC(=O)c1cnc(N(c2ccccc2)c2ccccc2)nc1)NO` [ACY-1215, ricolinostat]: in series [1], the “Histone acetylation on H4K12” value is “significantly increased” and the “amount of cellular acetyl-α-Tubulin” value was “increased”.

Consider `CN(Cc1ccc(C(=O)NO)cc1F)CC12CC3CC(CC(C3)C1)C2` [Example 1, 4-(((((3s)-Adamantan-1-yl)methyl)(methyl)amino)methyl)-3-fluoro-N-hydroxybenzamide], for which, in series [1], the “Histone acetylation on H3K9” value is recorded as “remained unaltered”, the “Histone acetylation on H4K12” value was “remained unaltered” and the “amount of cellular acetyl-α-Tubulin” value is listed as “increased”. For the same molecule, in series [2] (competitor at 1 μM), the “binding of radiolabeled Example 2 to rat brain slices in presence of competitor” value was “significantly reduced”. Also, the “effect of pretreatment on brain uptake of radiolabeled Example 2” value in series [4] (1 mg/kg immediately prior to radiotracer) is “blocking of brain uptake”. Also, the “effect on time activity curve of radiolabeled Example 2” value in series [4] (1 mg/kg, 30-minutes post radiotracer administration) is on record as “clear deflection of the time activity curve”. Besides, in series [5], the “Microsome stability (half-life, min)” value came out at 19 min. Moreover, the “Hepatocyte stability (half-life, min)” value in series [6] is recorded as 20 (hu) min.

For the molecule `CN(Cc1ccc(C(=O)NO)cc1[18F])CC12CC3CC(CC(C3)C1)C2` [Example 2, 4-((((Adamantan-1-yl)methyl)(methyl)amino)methyl)-3-[^18F]fluoro-N-hydroxybenzamide], the “brain uptake and retention” value in series [4] (PET, radiotracer iv bolus) is listed as “excellent”. The “off-rate in preclinical PET” value in series [4] (rat, in vivo) is reported as “slow”.

The values above are taken from patent US11890356B2 (The General Hospital Corporation, priority 2017, dated 2024).
